Among the data in patent US12649737B2, “Compounds and uses thereof” (Foghorn Therapeutics Inc., priority 2020, dated 2026) are IC50 values, retold here.

Structures are written as SMILES.

One assay deals with T1, BRM (Homo sapiens, UniProt P51531).
T1 construct: made in house; host or cells: High Five insect cells
Description: ATPase catalytic activity assay of BRM (ADP-Glo). It is filed as biochemical. The following applies: 30 nM BRM, 400 μM ATP, 20 nM salmon sperm DNA, 1 hour at room temperature. As for the experimental part: (§1) Example 38. Assay for ATPase Catalytic Activity of BRM and BRG-1
(§2) The ADP-Glo™ kinase assay is performed in two steps once the reaction is complete.

The target of another assay is T2, BRG-1 (Homo sapiens, UniProt P51532).
T2 construct: made in house; host or cells: High Five insect cells
Description: ATPase catalytic activity assay of BRG-1 (ADP-Glo). The conditions noted are these: 30 nM BRG-1, 400 μM ATP, 20 nM salmon sperm DNA, 1 hour at room temperature; read-out: BRG1 ATPase: IC50. It counts as biochemical. As for the experimental part: as §1, §2

T2 sequence (P51532 whole entry): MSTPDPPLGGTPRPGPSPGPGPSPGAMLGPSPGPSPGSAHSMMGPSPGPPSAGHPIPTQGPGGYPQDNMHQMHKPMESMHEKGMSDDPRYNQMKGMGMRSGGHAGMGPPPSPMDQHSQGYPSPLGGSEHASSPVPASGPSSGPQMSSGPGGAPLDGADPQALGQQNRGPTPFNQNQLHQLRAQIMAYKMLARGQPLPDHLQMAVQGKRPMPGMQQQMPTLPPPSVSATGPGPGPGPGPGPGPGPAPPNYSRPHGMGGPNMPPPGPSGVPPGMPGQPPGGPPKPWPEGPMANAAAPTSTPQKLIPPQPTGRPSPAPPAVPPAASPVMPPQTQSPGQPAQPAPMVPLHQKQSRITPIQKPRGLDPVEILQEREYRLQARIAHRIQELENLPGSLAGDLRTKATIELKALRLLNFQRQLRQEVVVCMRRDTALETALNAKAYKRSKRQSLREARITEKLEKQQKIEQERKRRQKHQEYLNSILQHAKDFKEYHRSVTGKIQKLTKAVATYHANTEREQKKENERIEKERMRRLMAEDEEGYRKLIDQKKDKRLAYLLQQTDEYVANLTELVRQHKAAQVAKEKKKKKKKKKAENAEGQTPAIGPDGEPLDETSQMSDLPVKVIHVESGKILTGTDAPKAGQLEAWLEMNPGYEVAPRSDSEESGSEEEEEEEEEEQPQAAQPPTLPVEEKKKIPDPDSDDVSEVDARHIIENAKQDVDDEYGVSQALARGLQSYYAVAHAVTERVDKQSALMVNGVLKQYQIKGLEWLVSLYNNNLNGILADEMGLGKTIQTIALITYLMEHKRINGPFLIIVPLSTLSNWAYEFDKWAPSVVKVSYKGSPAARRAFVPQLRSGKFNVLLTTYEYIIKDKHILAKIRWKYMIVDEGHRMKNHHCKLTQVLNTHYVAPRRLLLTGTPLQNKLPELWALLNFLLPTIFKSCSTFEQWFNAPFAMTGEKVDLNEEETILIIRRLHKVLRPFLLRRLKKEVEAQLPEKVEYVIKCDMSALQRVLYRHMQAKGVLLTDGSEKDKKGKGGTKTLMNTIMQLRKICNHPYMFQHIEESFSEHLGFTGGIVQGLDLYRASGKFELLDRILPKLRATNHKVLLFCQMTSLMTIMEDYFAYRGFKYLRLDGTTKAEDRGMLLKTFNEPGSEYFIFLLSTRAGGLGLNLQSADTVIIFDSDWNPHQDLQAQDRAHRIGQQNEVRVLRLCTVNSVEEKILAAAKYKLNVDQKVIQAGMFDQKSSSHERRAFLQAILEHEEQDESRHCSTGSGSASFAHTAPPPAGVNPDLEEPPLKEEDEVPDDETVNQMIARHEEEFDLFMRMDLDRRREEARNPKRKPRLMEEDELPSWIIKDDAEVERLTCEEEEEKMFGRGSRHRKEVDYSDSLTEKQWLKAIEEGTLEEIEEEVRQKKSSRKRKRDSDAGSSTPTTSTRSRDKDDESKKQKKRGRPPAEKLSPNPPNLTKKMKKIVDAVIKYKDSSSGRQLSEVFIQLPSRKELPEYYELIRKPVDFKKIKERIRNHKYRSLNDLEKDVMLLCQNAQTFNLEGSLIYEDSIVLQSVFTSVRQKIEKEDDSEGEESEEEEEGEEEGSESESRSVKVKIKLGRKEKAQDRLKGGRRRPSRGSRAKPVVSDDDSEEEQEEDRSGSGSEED
T1 sequence (P51531 whole entry): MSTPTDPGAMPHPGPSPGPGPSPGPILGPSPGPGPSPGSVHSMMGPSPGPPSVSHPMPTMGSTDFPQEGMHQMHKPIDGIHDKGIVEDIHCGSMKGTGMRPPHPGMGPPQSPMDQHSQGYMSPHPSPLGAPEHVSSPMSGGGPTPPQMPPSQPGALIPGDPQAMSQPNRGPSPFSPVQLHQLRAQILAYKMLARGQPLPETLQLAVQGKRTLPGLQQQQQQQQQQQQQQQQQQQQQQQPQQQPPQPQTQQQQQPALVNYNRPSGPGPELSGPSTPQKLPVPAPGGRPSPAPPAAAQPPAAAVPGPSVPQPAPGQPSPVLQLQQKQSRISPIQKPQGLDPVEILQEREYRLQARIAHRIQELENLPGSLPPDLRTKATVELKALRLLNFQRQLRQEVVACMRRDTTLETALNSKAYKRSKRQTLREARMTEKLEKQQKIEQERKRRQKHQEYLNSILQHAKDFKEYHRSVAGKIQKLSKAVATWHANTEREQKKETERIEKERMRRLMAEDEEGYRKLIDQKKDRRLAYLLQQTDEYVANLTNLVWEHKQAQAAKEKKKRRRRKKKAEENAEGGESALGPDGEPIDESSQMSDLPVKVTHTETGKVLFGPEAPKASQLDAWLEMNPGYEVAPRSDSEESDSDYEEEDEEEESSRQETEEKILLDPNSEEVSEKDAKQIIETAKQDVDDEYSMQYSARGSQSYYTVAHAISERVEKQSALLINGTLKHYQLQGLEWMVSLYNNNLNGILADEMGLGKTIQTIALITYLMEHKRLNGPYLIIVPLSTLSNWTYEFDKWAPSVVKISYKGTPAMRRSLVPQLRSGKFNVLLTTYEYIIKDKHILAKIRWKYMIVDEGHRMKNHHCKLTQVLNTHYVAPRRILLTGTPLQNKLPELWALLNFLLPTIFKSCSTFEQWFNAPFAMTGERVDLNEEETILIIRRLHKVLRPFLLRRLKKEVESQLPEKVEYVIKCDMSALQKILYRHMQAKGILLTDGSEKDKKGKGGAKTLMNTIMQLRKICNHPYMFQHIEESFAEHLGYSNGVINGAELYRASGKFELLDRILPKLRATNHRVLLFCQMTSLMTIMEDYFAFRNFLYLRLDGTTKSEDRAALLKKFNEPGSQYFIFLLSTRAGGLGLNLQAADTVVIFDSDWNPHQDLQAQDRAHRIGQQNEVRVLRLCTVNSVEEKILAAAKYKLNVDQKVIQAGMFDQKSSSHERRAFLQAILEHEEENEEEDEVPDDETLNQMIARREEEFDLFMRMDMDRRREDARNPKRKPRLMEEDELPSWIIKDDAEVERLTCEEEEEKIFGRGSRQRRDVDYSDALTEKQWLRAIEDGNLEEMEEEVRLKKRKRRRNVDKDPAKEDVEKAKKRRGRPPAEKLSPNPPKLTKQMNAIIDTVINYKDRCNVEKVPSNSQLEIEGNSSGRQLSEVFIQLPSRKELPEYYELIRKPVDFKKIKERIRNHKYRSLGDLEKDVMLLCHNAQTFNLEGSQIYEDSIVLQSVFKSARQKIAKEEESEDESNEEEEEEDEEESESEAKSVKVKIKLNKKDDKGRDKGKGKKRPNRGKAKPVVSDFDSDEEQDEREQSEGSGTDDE

Regarding `C[C@@H]1CN(c2cccc(-c3ccc4nc(CNC(=O)c5ccn(C(C)(C)C)c5)[nH]c4n3)c2)C[C@H](C)O1` [Compound 19], the IC50 at BRM and at BRG-1 was 100 to 1000 nM each time.

For the compound `COC(=O)N1CCC[C@H](c2ccc3nc(CNC(=O)c4ccn(S(C)(=O)=O)c4)[nH]c3c2)C1` [Compound 22, (R)-methyl 3-(2-((1-(methylsulfonyl)-1H-pyrrole-3-carboxamido)methyl)-1H-benzo[d]imidazol-6-yl)piperidine-1-carboxylate], the values for the IC50 against BRM and at BRG-1 were 100 to 1000 nM and more than 1000 nM, respectively.

As to `Cn1ccc2ccc(-c3ccc4nc(CNC(=O)c5ccn(C6(C)COC6)c5)[nH]c4c3)cc2c1=O` [Compound 20, N-((6-(2-methyl-1-oxo-1,2-dihydroisoquinolin-7-yl)-1H-benzo[d]imidazol-2-yl)methyl)-1-(3-methyloxetan-3-yl)-1H-pyrrole-3-carboxamide], the IC50 at BRM and on BRG-1 was 100 to 1000 nM in each case.

On to `CC(C)(C)n1ccc(C(=O)NCc2nc3ccc(-c4cccc(C#N)c4)cc3[nH]2)c1` [Compound 39], for which the IC50 against BRM and on BRG-1 was 100 to 1000 nM in each case.

For the compound `COc1ccccc1-c1ccc2cnc(CNC(=O)c3ccn(S(C)(=O)=O)c3)cc2n1` [Compound 75], the IC50 on BRM is 10 to 100 nM; at BRG-1, 100 to 1000 nM.

Turning to `CC(C)(C)n1ccc(C(=O)NCc2nc3ccc(-c4ccc(C#N)cc4)cc3[nH]2)c1` [Compound 43], the IC50 against BRM and at BRG-1 was 100 to 1000 nM each time.

For the compound `CS(=O)(=O)n1ccc(C(=O)NCc2nc3ccc(-c4ccc(OC(F)(F)F)cc4)nc3[nH]2)c1` [Compound 28], the IC50 on BRM and at BRG-1 was 10 to 100 nM throughout.

Turning to `CC(C)(C)n1ccc(C(=O)NCc2nc3ccc(-c4cnn5ccccc45)cc3[nH]2)c1` [Compound 47], the concentration for half-maximal inhibition (IC50) on BRM and at BRG-1 was 10 to 100 nM each time.

Take `C[C@@H]1CN(c2cccc(-c3ccc4cnc(CNC(=O)c5ccn(S(C)(=O)=O)c5)cc4n3)n2)C[C@H](C)O1` [Compound 76, N-((2-(6-(cis-2,6-dimethylmorpholino)pyridin-2-yl)-1,6-naphthyridin-7-yl)methyl)-1-(methylsulfonyl)-1H-pyrrole-3-carboxamide]: the IC50 against BRM was less than 10 nM; at BRG-1 it was 10 to 100 nM.

Regarding `C[C@@H]1CN(c2cccc(-c3ccc4nc(CNC(=O)c5ccn(C(C)(C)C)c5)[nH]c4c3)c2)C[C@H](C)O1` [Compound 15], the IC50 against BRM and on BRG-1 was 100 to 1000 nM throughout.

Consider `CC(C)(C)n1ccc(C(=O)NCc2nc3ccc(-c4ccc(-n5cccn5)cc4)cc3[nH]2)c1` [Compound 54], for which the IC50 at BRM and on BRG-1 was 100 to 1000 nM in each case.

Consider `Nc1ccc(C(=O)NCc2nc3ccc(-c4cccc(-c5ccncc5)c4)nc3[nH]2)cc1` [Compound 1, 4-amino-N-((5-(3-(pyridin-4-yl)phenyl)-3H-imidazo[4,5-b]pyridin-2-yl)methyl)benzamide], for which the IC50 at BRM and at BRG-1 was 100 to 1000 nM in each case.

Take `C[C@@H]1CN(c2cccc(-c3ccc4cnc(CNC(=O)c5ccn(C(C)(C)C)c5)cc4n3)n2)C[C@H](C)O1` [Compound 77]: the IC50 against BRM and on BRG-1 was 10 to 100 nM in each case.

Consider `COc1ccc(-c2ccc3nc(CNC(=O)c4ccn(C(C)(C)C)c4)[nH]c3n2)cc1` [Compound 6], for which the IC50 against BRM and on BRG-1 was 100 to 1000 nM throughout.

For the compound `C[C@H](NC(=O)c1ccn(S(C)(=O)=O)c1)c1nc2ccc(-c3cccc(-c4ccncc4)c3)nc2[nH]1` [Compound 4], the IC50 against BRM and at BRG-1 was 10 to 100 nM throughout.

For the compound `Cc1ccc2ccc(-c3ccc4nc(CNC(=O)c5ccn(C(C)(C)C)c5)[nH]c4c3)cc2n1` [Compound 52], the IC50 against BRM and at BRG-1 was 10 to 100 nM each time.

As to `C[C@@H]1CN(c2cccc(-c3ccc4cnc(CNC(=O)c5ccn(C(C)(C)C#N)n5)cc4n3)n2)C[C@H](C)O1` [Compound 79], the IC50 at BRM and at BRG-1 was 10 to 100 nM throughout.

Regarding `COc1ccc2cc(-c3ccc4nc(CNC(=O)c5ccn(C(C)(C)C)c5)[nH]c4c3)ccc2c1` [Compound 44], the IC50 at BRM and at BRG-1 was 10 to 100 nM in each case.

As for `COC(=O)N1CCC[C@@H](c2ccc3nc(CNC(=O)c4ccn(S(C)(=O)=O)c4)[nH]c3c2)C1` [Compound 21, (S)-methyl 3-(2-((1-(methylsulfonyl)-1H-pyrrole-3-carboxamido)methyl)-1H-benzo[d]imidazol-6-yl)piperidine-1-carboxylate], the IC50 on BRM and at BRG-1 was 100 to 1000 nM each time.

As to `CC(C)(C)n1ccc(C(=O)NCc2nc3ccc(-c4cc(Cl)cc(C#N)c4)cc3[nH]2)c1` [Compound 30], the results for the IC50 against BRM and on BRG-1 were 10 to 100 nM and 100 to 1000 nM, respectively.

Turning to `CS(=O)(=O)n1ccc(C(=O)NCc2cc3nc(-c4ccccc4)ccc3cn2)c1` [Compound 61, 1-(methylsulfonyl)-N-((2-phenyl-1,6-naphthyridin-7-yl)methyl)-1H-pyrrole-3-carboxamide], the IC50 at BRM and at BRG-1 was 100 to 1000 nM throughout.

Regarding `CS(=O)(=O)n1ccc(C(=O)NCc2nc3ccc(N4CCCC(C5CCC5)C4)nc3[nH]2)c1` (stereo not shown) [Compound 23], the IC50 on BRM and at BRG-1 was 100 to 1000 nM throughout.

As to `Cc1nn(C)c2ccc(-c3ccc4nc(CNC(=O)c5ccn(C(C)(C)C)c5)[nH]c4c3)cc12` [Compound 49], the IC50 against BRM and on BRG-1 was 10 to 100 nM throughout.

Turning to `CS(=O)(=O)n1ccc(C(=O)NCc2cc3nc(-c4cccc(C#N)c4)ccc3cn2)c1` [Compound 66, N-((2-(3-cyanophenyl)-1,6-naphthyridin-7-yl)methyl)-1-(methylsulfonyl)-1H-pyrrole-3-carboxamide], the IC50 against BRM and on BRG-1 was more than 1000 nM throughout.

With `CC(C)(C)n1ccc(C(=O)NCc2nc3ccc(-c4cccc5ccncc45)cc3[nH]2)c1` [Compound 51], the results for the IC50 against BRM and at BRG-1 were 10 to 100 nM and 100 to 1000 nM, respectively.

With `CS(=O)(=O)n1ccc(C(=O)NCc2cc3nc(-c4ccccc4)sc3cn2)c1` [Compound 73, 1-methylsulfonyl-N-[(2-phenylthiazolo[5,4-c]pyridin-6-yl)methyl]pyrrole-3-carboxamide], the IC50 at BRM and on BRG-1 was 100 to 1000 nM in each case.

`C[C@@H](NC(=O)c1ccn(S(C)(=O)=O)c1)c1nc2ccc(-c3cccc(-c4ccncc4)c3)nc2[nH]1` [Compound 5]: the IC50 at BRM and at BRG-1 was 100 to 1000 nM each time.

As to `COC(=O)N1CCC[C@@H](c2ccc3nc(CNC(=O)c4ccn(S(C)(=O)=O)c4)[nH]c3n2)C1` [Compound 25], the IC50 on BRM and on BRG-1 was 100 to 1000 nM throughout.

`COc1cccc(-c2ccc3cnc(CNC(=O)c4ccn(S(C)(=O)=O)c4)cc3n2)c1` [Compound 62]: the half-inhibitory concentration (IC50) against BRM and on BRG-1 was 100 to 1000 nM each time.

Consider `CC(C)(C)n1ccc(C(=O)NCc2nc3ccc(-c4ccc5c(c4)OCC5)cc3[nH]2)c1` [Compound 45], for which the values for the 50% inhibitory concentration (IC50) on BRM and at BRG-1 were 10 to 100 nM and 100 to 1000 nM, respectively.

For the compound `CS(=O)(=O)n1ccc(C(=O)NCc2nc3ccc(-c4cccc(N5CCC5)c4)nc3[nH]2)c1` [Compound 10], the IC50 is 10 to 100 nM at BRM and 100 to 1000 nM at BRG-1.

Take `Cn1ncc2ccc(-c3ccc4nc(CNC(=O)c5ccn(C(C)(C)C)c5)[nH]c4c3)cc21` [Compound 36]: the IC50 on BRM and at BRG-1 was 100 to 1000 nM each time.

Take `COC[C@H](NC(=O)c1ccn(S(C)(=O)=O)c1)c1cc2nc(-c3cccc(N4C[C@@H](C)O[C@@H](C)C4)n3)ccc2cn1` [Compound 82]: the IC50 at BRM is 10 to 100 nM; on BRG-1, 100 to 1000 nM.

As for `CC(C)(C)n1ccc(C(=O)NCc2nc3ccc(-c4ccc5scnc5c4)cc3[nH]2)c1` [Compound 42], the IC50 at BRM and on BRG-1 was 10 to 100 nM in each case.

Consider `CC(C)(C)n1ccc(C(=O)NCc2nc3ccc(-c4ccc5c(c4)OCO5)cc3[nH]2)c1` [Compound 58], for which the IC50 at BRM lay in the range of 10 to 100 nM; at BRG-1 it was 100 to 1000 nM.

On to `CS(=O)(=O)n1ccc(C(=O)NCc2cc3nc(-c4cccc(N5CCC5)c4)ccc3cn2)c1` [Compound 64, N-[[2-[3-(azetidin-1-yl)phenyl]-1,6-naphthyridin-7-yl]methyl]-1-methylsulfonyl-pyrrole-3-carboxamide], for which the IC50 against BRM is 10 to 100 nM; on BRG-1, 100 to 1000 nM.

`CN(C)c1ncc(-c2ccc3nc(CNC(=O)c4ccn(C(C)(C)C)c4)[nH]c3c2)cn1` [Compound 56]: the IC50 on BRM and at BRG-1 was 10 to 100 nM in each case.

As for `CC(C)(C)n1ccc(C(=O)NCc2nc3ccc(-c4ccc5cnccc5c4)cc3[nH]2)c1` [Compound 41], the IC50 on BRM and at BRG-1 was 10 to 100 nM throughout.

`CS(=O)(=O)n1ccc(C(=O)NCc2nc3ccc(-c4cccc(N5CCC5)c4)cc3[nH]2)c1` [Compound 7]: the IC50 on BRM and at BRG-1 was 100 to 1000 nM in each case.

As to `CS(=O)(=O)n1ccc(C(=O)NCc2cc3nc(-c4ccc5c(c4)OCC5)ccc3cn2)c1` [Compound 68], the IC50 against BRM and on BRG-1 was 100 to 1000 nM each time.

In the case of `CS(=O)(=O)n1ccc(C(=O)NCc2cc3nc(-c4cccc(C(F)F)c4)ccc3cn2)c1` [Compound 65], the IC50 at BRM and at BRG-1 was 100 to 1000 nM each time.

With `CS(=O)(=O)n1ccc(C(=O)NCc2nc3ccc(-c4ccc(N5CCC5)cc4)nc3[nH]2)c1` [Compound 9], the IC50 against BRM and at BRG-1 was 10 to 100 nM throughout.

Take `CS(=O)(=O)n1ccc(C(=O)NCc2nc3ccc(-c4cccc(-c5ccncc5)c4)nc3[nH]2)c1` [Compound 2]: the IC50 against BRM and at BRG-1 was 10 to 100 nM each time.

Turning to `Cc1ccc2cc(-c3ccc4nc(CNC(=O)c5ccn(C(C)(C)C)c5)[nH]c4c3)ccc2n1` [Compound 57], the IC50 on BRM and at BRG-1 was 10 to 100 nM each time.
